From patent publication US12215123B2, “Cordycepin-based derivatized compound with anti-tumor effect” (NANJING TECH UNIVERSITY, priority 2022, dated 2025)
Structures can show the parent of a compound that is named as a salt. Where two headings read alike, the source gives them in different places.

Experiments:
[1] = system: wild-type AB-line zebrafish; details: 3 dpf to 5 dpf, 35° C.; survival rate>90% and teratogenicity<20%
Protocol: The zebrafish model is a wild-type AB-line zebrafish from College of Biotechnology and Pharmaceutical Engineering, Nanjing Tech University, and is carried out by a natural mating reproduction method, with 30 zebrafish of 2 dpf in each experimental group. The zebrafish is fed in fish culture water at 28° C. (water quality:200 mg of instant sea salt and CaCO3 are added into 1 L of reverse osmosis water with a conductivity of 480 uS/cm to 510 uS/cm, a pH value of 6.9 to 7.2, and a hardness of 53.7 mg/L to 71.6 mg/L), and the feeding management meets the requirements of international AAALAC certification.
240 3 dpf wild-type AB-line zebrafish were randomly selected in an 8-well plate, with 30 zebrafish in each well, and 3 mL of fish culture water in each well, the cordycepin was diluted according to a maximum lethal dose, dissolved in DMSO, and added into each well according to a concentration gradient (the maximum lethal dose was diluted by 100 times, in which 8 concentration gradient values were taken for the experiment), and meanwhile, a normal control group, a solvent control group G (5% glucose) and a solvent control group D (DMSO) were set. During the experiment, the zebrafish in each group were cultured at 35° C., after the zebrafish were treated to be 5 dpf with a sample to be tested, lethal and developmental malformation conditions of the zebrafish in different doses were investigated respectively, and a maximum tolerance dose (MTD) of the sample to be tested to normal zebrafish was determined under a concentration when survival rate>90% and teratogenicity<20%.

[2] = system: gastric cancer cell line AGS; experiment: MTT proliferation, gastric cancer cell line AGS; assay type: cell-based; details: MTT, 72 hours, AGS; read-out: IC50 (μM) in gastric cancer cells, AGS
Protocol: (§1) The method for determining inhibitory activities of the compounds on the proliferation of tumor cells by an MTT method is as follows: a bottle of cells in a good state in an exponential growth phase is added with 0.25% trypsin digestive juice, the digestion makes adherent cells fall off, with 2 to 4×10^4 cells/mL, and a cell suspension is prepared. The cell suspension is inoculated on a 96-well plate, with 90 μL/well, and cultured in a constant-temperature CO2 incubator for 24 hours. The prepared compounds are added for testing, with 10 μL/well, and cultured for 72 hours. An MTT reagent is added into a 96-well plate, with 10 μL/well, and reacts in an incubator for 4 hours to absorb a supernatant, and then dimethyl sulfoxide is added, with 100 μL/well. After a crystal is dissolved, an absorbance of each well at a wavelength of 570 nm is measured by an enzyme-linked immunosorbent assay instrument, and a cell inhibition rate is calculated. An S curve is made with a compound concentration and a corresponding inhibition rate. Therefore, IC50 of a corresponding compound is obtained.
(§2) Anti-tumor dose-effect relationship curves of the cordycepin and 40 compounds prepared in gastric cancer cell lines AGS and BGC-823 were analyzed by an MTT experimental method.

[3] = system: gastric cancer cell line BGC-823; experiment: MTT proliferation, gastric cancer cell line BGC-823; assay type: cell-based; details: MTT, 72 hours, BGC-823, read-out: IC50 (μM) in gastric cancer cells, BGC-823
Protocol: as §1, §2

[4] = system: small cell lung cancer cell line H446; experiment: MTT proliferation, small cell lung cancer cell line H446; assay type: cell-based; details: MTT; for IC50: 72 hours, H446, read-out: IC50 (μM) of compounds in small cell lung cancer cells, H446
Protocol: as §1
(§3) Anti-tumor dose-effect relationship curves of cordycepin and compounds 1, 2, 4, 5, 7, 8, 10, 12, 16, 18, 21, 23, 24, 35 and 38 in small cell lung cancer cell lines H1048, H446 and H69 were analyzed by an MTT experimental method.

[5] = system: small cell lung cancer cell line H1048; experiment: MTT proliferation, small cell lung cancer cell line H1048; assay type: cell-based; details: MTT, 72 hours, H1048, read-out: IC50 (μM) of compounds in small cell lung cancer cells, H1048
Protocol: as §1, §3

[6] = system: small cell lung cancer cell line H69; experiment: MTT proliferation, small cell lung cancer cell line H69; assay type: cell-based; details: MTT, 72 hours, H69; read-out: IC50 (μM) of compounds in small cell lung cancer cells, H69
Protocol: as §1, §3

IC50 [2] [µM]	IC50 ([3]; Homo sapiens) [µM]	Compound	IC50 [6] [µM]	IC50 [3] [µM]	other results
0.89	1.31	CC(C)(C)C(=O)OCOP(=O)(COC[C@@H]1CC(O)[C@H](n2cnc3c(NC(=O)c4ccncc4)ncnc32)O1)OCOC(=O)C(C)(C)C (stereo partly shown) [Compound 23]	20.2		IC50 ([4]; Homo sapiens, NCI-H446, 72 h): 16.4 µM; IC50 ([5]; Homo sapiens, NCI-H1048, 72 h): 17.4 µM
75.4	64.2	CC(C)C(N)C(=O)OC1C[C@@H](COP(=O)(O)O)O[C@H]1n1cnc2c(N)ncnc21 (stereo partly shown) [Compound 30, 2-(6-amino-9H-purin-9-yl)-5-(phosphonoxy)methyl)tetrahydrofuran-3-yl valine salt]			
134	104	Nc1nc(/C=C/Br)nc2c1ncn2[C@@H]1O[C@H](COP(=O)(O)O)CC1O (stereo partly shown) [Compound 38, (5-(6-amino-2-((E)-2-bromocarbonyl)-9H-purine-9-yl)-4-hydroxytetrahydrofuran-2-yl)dihydromethyl phosphate]	1.25		IC50 ([4]; Homo sapiens, NCI-H446, 72 h): 0.97 µM; killing effect on the three lines of cells in vitro ([4]; stated in words for all three lines H1048, H446 and H69): strong killing effect; IC50 ([5]; Homo sapiens, NCI-H1048, 72 h): 1.37 µM
57.4	46.6	CC(C)(C)C(=O)OCOP(=O)(COC[C@H]1O[C@@H](n2cnc3c(N)ncnc32)C(O)[C@H]1N=[N+]=[N-])OCOC(=O)C(C)(C)C (stereo partly shown) [Compound 26, (((((5-(6-amino-9H-purine-9-yl)-3-azide-4-hydroxytetrahydrofuran-2-yl)methoxy)methyl)phosphoryl)bis(oxy))bis(methylene)bis(2,2-dimethylpropionic acid)]			
1.32	2.39	CC(C)(C)C(=O)OCOP(=O)(COC[C@@H]1CC(O)[C@H](n2cnc3c(N)nc(F)nc32)O1)OCOC(=O)C(C)(C)C (stereo partly shown) [Compound 17]			
41.2	33.6	CC(C)C(N)C(=O)OC1C[C@@H](COP(=O)(O)O)O[C@H]1n1cnc2c(NC(=O)c3ccncc3)ncnc21 (stereo partly shown) [Compound 31, 2-(6-(isonicotinamide)-9H-purin-9-yl)-5-(phosphonyl)methyl)tetrahydrofuran-3-yl valine salt]			
32.5	41.4	CC(C)C(N)C(=O)OC1C[C@@H](CO)O[C@H]1n1cnc2c(N)ncnc21 (stereo partly shown) [Compound 29, 2-(6-amino-9H-purin-9-yl)-5-(hydroxymethyl)tetrahydrofuran-3-yl valine salt]			
18.4	20.7	Nc1ncnc2c1ncn2[C@@H]1O[C@H](COP(=O)(O)O)[C@H](F)C1O (stereo partly shown) [Compound 15, (5-(6-amino-9H-purine-9-yl)-3-fluoro-4-hydroxytetrahydrofuran-2-yl)dihydromethyl phosphate]			
164	189	Nc1ncnc2c1ncn2C1OC(COC2CC(CO)C(O)C2O)CC1O (stereo not shown) [Compound 40, 3-((5-(6-amino-9H-purin-9-yl)-4-hydroxytetrahydrofuran-2-yl)methoxy)-5-(hydroxymethyl)cyclopentane-1,2-diol]			
12.9	18.6	Nc1nc(S)nc2c1ncn2[C@@H]1O[C@H](COP(=O)(O)O)CC1O (stereo partly shown) [Compound 14, (5-(6-amino-2-mercapto-9H-purine-9-yl)-4-hydroxytetrahydrofuran-2-yl)dihydromethyl phosphate]			

The remaining lines, values behind:

Compound	IC50 [2] [µM]	IC50 ([3]; Homo sapiens) [µM]	IC50 [6] [µM]	IC50 [3] [µM]	other results
Nc1nc(F)nc2c1ncn2C1OC(COC2CC(CO)C(O)C2O)CC1O (stereo not shown) [Compound 36, 3-((5-(6-amino-2-fluoro-9H-purin-9-yl)-4-hydroxytetrahydrofuran-2-yl)methoxy)-5-(hydroxymethyl)cyclopentane-1,2-diol]	103	90.2			Maximum tolerance dose (MTD) in zebrafish model [1]: 0.02 µM
CC(C)[C@H](N)C(=O)OCC(CO)OCC1CC(O)C(n2cnc3c(N)ncnc32)O1 (stereo partly shown) [Compound 8, 2-(-5-(6-amino-9H-purin-9-yl)-4-hydroxytetrahydrofuran-2-yl)methoxy)-3-hydroxypropyl valine salt]	27.8		14.8	18.8	IC50 [4]: 10.5 µM; IC50 [5]: 14.5 µM
isopropyl((((3-azide-4-hydroxy-5-(6-(isoniazid)-9H-purin-9-yl)tetrahydrofuran-2-yl)methoxy)methyl)(phenoxy)phosphoryl)alanine ester [Compound 28]	3.47			5.42	
Nc1ncnc2c1ncn2[C@@H]1O[C@H](COCCO)CC1O (stereo partly shown) [Compound 1]	81.7		20.6	64.4	IC50 [4]: 23.8 µM; IC50 [5]: 27.4 µM
CC(C)Nc1nc2c(N)ncnc2n1[C@@H]1O[C@H](COP(=O)(O)O)CC1O (stereo partly shown) [Compound 39, (5-(6-amino-8-(isopropylamino)-9H-purin-9-yl)-4-hydroxytetrahydrofuran-2-yl)dihydromethyl phosphate]	187	167			Maximum tolerance dose (MTD) in zebrafish model [1]: 28 µM
CCCCCOC1CC(COCP(=O)(O)O)OC1n1cnc2c(NC(=O)c3ccncc3)ncnc21 (stereo not shown) [Compound 32, (((5-(6-(isonicotinamide)-9H-purine-9-yl)-4-(pentoxy)tetrahydrofuran-2-yl)methoxy)methyl)phosphonic acid]	23			19.8	
Nc1ncnc2c1ncn2[C@@H]1O[C@H](COCP(=O)(O)O)CC1O (stereo partly shown) [Compound 3]	86.7	61.4			
O=C(Nc1ncnc2c1ncn2[C@@H]1O[C@H](CO)CC1O)c1ccncc1 (stereo partly shown) [Compound 12]	1.23	1.34	19.5		IC50 ([4]; Homo sapiens, NCI-H446, 72 h): 18.1 µM; IC50 ([5]; Homo sapiens, NCI-H1048, 72 h): 22.2 µM
N-(3-hydroxy-5-(hydroxymethyl)tetrahydrofuran-2-yl)-9H-purine-6-yl)octadecylamine [Compound 10]	136		9.48	82.4	IC50 [4]: 12.1 µM; IC50 [5]: 10.4 µM
N-(2-fluoro-3-hydroxy-5-(hydroxymethyl)tetrahydrofuran-2-yl)-9H-purine-6-yl)octadecylamine [Compound 21]	2.46		2.95	4.38	IC50 [4]: 4.58 µM; IC50 [5]: 6.38 µM
CC(C)COP(=O)(OCC(C)C)OC[C@@H]1CC(O)[C@H](n2cnc3c(N)ncnc32)O1 (stereo partly shown) [Compound 4, (5-(6-amino-9H-purine-9-yl)-4-hydroxytetrahydrofuran-2-yl)diisobutyl methylphosphate]	64.3	86.2	43.2		IC50 ([4]; Homo sapiens, NCI-H446, 72 h): 54.3 µM; IC50 ([5]; Homo sapiens, NCI-H1048, 72 h): 42.1 µM
COC(=O)C(C)NP(=O)(Oc1ccccc1)OC1C[C@@H](CO)O[C@H]1n1cnc2c(N)ncnc21 (stereo partly shown) [Compound 33, methyl(((2-(6-amino-9H-purin-9-yl)-5-(hydroxymethyl)tetrahydrofuran-3-yl)oxy)(phenoxy)phosphoryl)alanine salt]	36.5			29.5	
N-(4-chloro-3-hydroxy-5-(hydroxymethyl)tetrahydrofuran-2-yl)-9H-purine-6-yl)octadecylamine [Compound 22]	45			53.7	
